The subject of data set [1] is C. sojina QoI fungicide-resistant isolate Cs350. The class given is cell-based, Cercospora sojina. The method, then:
In vitro antifungal activity of AFPs and QoI fungicides was determined using 96-well plate assays as described ([Velivelli et al., 2020]) with slight modifications. Briefly, 2- to 3-week-old C. sojina was used to make a conidial suspension in 2× SFM at the final concentration of ∼10^5 conidia ml^−1. Simultaneously, peptide dilutions (in water) at various concentrations were made. Fungicides were dissolved in 50% acetone and 50% water to make a stock solution of 500 µM, and serial dilutions were made in water as needed. The peptide–conidia or the fungicide–conidia mixture at the ratio of 1:1 (45 µl:45 µl) was added in a 96-well plate and incubated at room temperature for 48 h, after which MICs of the peptides/fungicides were calculated based on microscopy as well as the resazurin cell viability assay ([Velivelli et al., 2020]).

The subject of data set [2] is azoxystrobin-resistant C. sojina Cs350 conidia. As to the kind of experiment: Cell death detection assay (propidium iodide, confocal microscopy). The class given is cell-based, Cercospora sojina. Conditions: NCR13_PFV1 1.5 μM alone; within 1 h; PI staining; n=3. The method, then:
The fungicidal activity of azoxystrobin and peptide NCR13_PFV1 in azoxystrobin-resistant C. sojina Cs350 was analyzed by visualizing the influx of a cell death indicator dye propidium iodide (PI) using time-lapse confocal microscopy. The C. sojina conidia were treated with various concentrations of azoxystrobin, NCR13_PFV1, azoxystrobin plus NCR13_PFV1, or water and 0.5 μg ml^–1 PI, and were observed under confocal microscopy at an excitation and emission wavelength of 500 nm and 545–690 nm, respectively. Z-stacks at each time point were acquired using a ×63 water immersion objective lens (HC PL Apochromat CS2). For each sample, the number of live and dead cells after 1 h of peptide, fungicide, or combination treatment was determined.

Data set [3] deals with C. sojina Cs350 conidia and germlings. In words: Plasma membrane permeabilization assay (SYTOX Green). The data set is classed as cell-based, Cercospora sojina. The method, then: Membrane permeabilization of C. sojina Cs350 by NCR13_PFV1 and azoxystrobin was analyzed by visualizing the influx of SYTOX Green (SG) (Thermo Scientific) using time-lapse confocal microscopy. Germlings grown for 6–8 h or conidia of C. sojina were mixed with various concentrations of NCR13_PFV1, azoxystrobin, or both and 0.5 µM SG and were observed under confocal microscopy at an excitation wavelength of 500 nm and an emission wavelength ranging from 510 nm to 600 nm at specific time intervals. A z-stack at each time point was acquired using a ×63 water immersion objective lens (HC PL Apochromat CS2).

In the next data set the test system is C. sojina rRNA. In words: Electrophoretic mobility shift assay (EMSA). The class given is binding, Cercospora sojina. As to conditions: ~200 ng C. sojina RNA, 10 mM Tris–HCl pH 8.0, 1 mM EDTA, 1 h, room temperature. The method, then: To determine the RNA binding ability of NCR13_PFV1, EMSA was performed as described in [Godwin et al. (2024)]. Briefly, total RNA was extracted from C. sojina Cs350 grown in SFM using the ZymoBIOMICS DNA/RNA Miniprep Kit (Zymo Research). Approximately 200 ng of the fungal RNA was mixed with different concentrations of NCR13_PFV1 in 20 μl of binding buffer (10 mM Tris–HCl, pH 8.0, 1 mM EDTA), incubated at room temperature for 1 h, and run through gel electrophoresis.
A general note: In EMSA bound probe runs differently from free probe, usually more slowly.

Data set [4] is described as follows: Peroxidase assay (TMB substrate). The data set is classed as biochemical. As to conditions: heme 5 µM, peptide 5 µM, absorption at 370 nm and 652 nm. The method, then: A Pierce TMB substrate kit (Thermo Scientific) was used to measure the peroxidase activity of heme. In a transparent 96-well plate, 50 µl of TMB substrate and 50 µl of […] were added followed by addition of heme (5 µM) or peptides plus heme (5 µM each). The reaction progression was measured in the Tecan plate reader, by recording UV-vis absorption values at 370 nm and 652 nm for every minute up to 1 h.

A further data set concerns C. sojina conidia. In words: ROS measurement with H2DCFDA. Conditions: 1.5 μM peptide, 15 µM H2DCFDA. The data set is classed as cell-based, Cercospora sojina. The method, then:
The reactive oxygen species (ROS) indicator dye 2′,7′-dichlorodihydrofluorescein diacetate (H2DCFDA) was used to evaluate ROS induction in C. sojina cells. Cercospora sojina conidia (∼1×10^5 conidia ml^−1) in SFM at various concentrations of iron (FeSO4) were mixed with 15 µM H2DCFDA amd 1.5 µM NCR13_PFV1, and the fluorescence measurements were taken in a Tecan plate reader M200 PRO at excitation and emission wavelengths of 485 nm and 535 nm, respectively, every 30 min for 15 h. ROS induction in C. sojina was visualized using time-lapse confocal microscopy (×63 water immersion objective lens, HC PL Apochromat CS2). The C. sojina conidia grown for 4–5 h in SFM at various concentrations of iron were treated with 15 µM H2DCFDA and 1.5 µM DyLight550-NCR13_PFV1 followed by acquisition of z-stacks using a Leica SP8-X confocal microscope. The excitation and emission wavelengths of DyLight550-NCR13_PFV1 and H2DCFDA were 560 nm, 575–650 nm, and 485 nm, 500–540 nm, respectively.

In another data set the test system is B. cinerea. As to conditions: ref Godwin et al., 2024; cited from earlier work. From the text: The cysteine-rich defensins are the best characterized class of plant AFPs for their antifungal activity and multi-faceted MoAs. Many fungal pathogens internalize defensins and defensin-derived peptides in vitro, making them promising candidates for development as bio-fungicides to protect crops. For example, a well-characterized plant defensin MtDef4 and the 17 amino acid γ-core peptide GMA4CG_V6 peptide derived from this defensin are internalized by the necrotrophic pathogen Botrytis cinerea in vitro and robustly reduce gray mold symptoms when sprayed on tomato plants ([Tetorya et al., 2023] ...

Where no end group is shown, it is not given here.

For “TKPCQSDKDCKKFACRKPKVPKCINGFCKCVR (disulfide (positions not given here)) [NCR13_PFV1, chickpea nodule-specific cysteine-rich 32 amino acid peptide, disulfide cross-linking variant 1, expressed in Pichia pastoris]”, in data set [1] (0 μM FeSO4, 2 d), the “MIC in SFM without iron” value was determined as 0.75 µM. In data set [1] (CaCl2, up to 20 μM), the “change of MIC with calcium supplementation” value is given as “No change in MIC”. Moreover, in data set [1] (FeSO4 up to 60 μM, 2 d), the “MIC in SFM with ≥7.5 μM iron” value came to 3 µM. Further, the “change of MIC with manganese supplementation” value in data set [1] (MnSO4, various concentrations) is reported as “No change in MIC”. Moreover, the “MIC (μM) against C. sojina, Fungicide resistant, Cs350” value in data set [1] (SFM, ~10^5 conidia ml−1, room temperature, 48 h, resazurin cell viability assay and microscopy) amounted to 1.5 µM. In addition, the “change of MIC with zinc supplementation” value in data set [1] (ZnSO4, various concentrations) is recorded as “No change in MIC”. The cell death in data set [2] was determined as 57%. For the same sequence, the “plasma membrane permeabilization (SYTOX Green uptake)” value in data set [3] (Cs350, 0.5 µM SG, confocal microscopy) is recorded as “permeabilization of the plasma membrane”. In addition, in data set [3] (SYTOX Green uptake), the “time to plasma membrane permeabilization of conidia and germlings” value is given as not above 10 min. Further, in the data set with C. sojina rRNA, the “concentration from which binding to rRNA was observed” value was found to be 6 µM. In addition, the “peroxidase activity of heme and FeSO4 in the presence of peptide” value in data set [4] is “not reduced or stopped”. Moreover, the ROS induction result in the data set on C. sojina conidia is on record as “accumulates ROS”. Besides, in the data set on C. sojina conidia (read every 30 min for 15 h), the “ROS level over time at iron >20 μM” value was “did not increase with time”. For the same sequence, the “fold more potent antifungal activity than NCR13_PFV2 against B. cinerea” value in the data set on B. cinerea is recorded as 2 fold.
